Source: patent US6737383B1, “Herbicidal oxadiazolidines” (priority 1999, dated 2004)

What was measured:
cocklebur = test: Test B pre/postemergence cocklebur; format: in vivo, Xanthium strumarium
In short: (§1)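 Response is a visual 0-to-10 score relative to untreated plants, where 0 means no effect and 10 means complete control, taken twelve to sixteen days after application. Treatments went onto soil at planting and onto foliage of 1- to 4-leaf plants, using a surfactant-containing non-phytotoxic solvent.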

corn = test: Test B pre/postemergence corn; format: in vivo, Zea mays; settings: for Corn plant response rating: scale of 0 to 10 where 0 is no effect and 10 is complete control
In short: as §1

crabgrass = test: Test B pre/postemergence crabgrass; format: in vivo, Digitaria sanguinalis; settings: for Crabgrass plant response rating: scale of 0 to 10 where 0 is no effect and 10 is complete control
In short: as §1

giant foxtail = test: Test B pre/postemergence giant foxtail; format: in vivo, Setaria faberii; settings: for Giant foxtail plant response rating: scale of 0 to 10 where 0 is no effect and 10 is complete control
In short: as §1

morningglory = test: Test B pre/postemergence morningglory; format: in vivo, Ipomoea hederacea; settings: for Morningglory plant response rating: scale of 0 to 10 where 0 is no effect and 10 is complete control
In short: as §1

pigweed = test: Test B pre/postemergence pigweed; format: in vivo, Amaranthus retroflexus; settings: for Redroot pigweed plant response rating: scale of 0 to 10 where 0 is no effect and 10 is complete control
In short: as §1

rape = test: Test B pre/postemergence rape; format: in vivo, Brassica napus; settings: for Rape plant response rating: scale of 0 to 10 where 0 is no effect and 10 is complete control
In short: as §1

soybean = test: Test B pre/postemergence soybean; format: in vivo, Glycine max; settings: for Soybean plant response rating: scale of 0 to 10 where 0 is no effect and 10 is complete control
In short: as §1

sugar beet = test: Test B pre/postemergence sugar beet; format: in vivo, Beta vulgaris; settings: for Sugarbeets plant response rating: scale of 0 to 10 where 0 is no effect and 10 is complete control
In short: as §1

velvetleaf = test: Test B pre/postemergence velvetleaf; format: in vivo, Abutilon theophrasti; settings: for Velvetleaf plant response rating: scale of 0 to 10 where 0 is no effect and 10 is complete control
In short: as §1

wheat = test: Test B pre/postemergence wheat; format: in vivo, Triticum aestivum; settings: for Wheat plant response rating: scale of 0 to 10 where 0 is no effect and 10 is complete control
In short: as §1

wild oat = test: Test B pre/postemergence wild oat; format: in vivo, Avena fatua; settings: for Wild oats plant response rating: scale of 0 to 10 where 0 is no effect and 10 is complete control
In short: as §1

purple nutsedge = test: Test B pre/postemergence purple nutsedge; format: in vivo, Cyperus rotundus; settings: for Nutsedge plant response rating: scale of 0 to 10 where 0 is no effect and 10 is complete control
In short: as §1

rice = test: Test B flood test rice; format: in vivo, Oryza sativa; settings: Pre-emergence
In short: (§2)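 Flood test on plants grown to the 2-leaf stage; treated plants kept in greenhouse twelve to sixteen days, then visually rated against controls on a 0 (no effect) to 10 (complete control) scale.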

duck salad = test: Test B flood test duck salad; format: in vivo, Heteranthera limosa; settings: Pre-emergence
In short: as §2

bamyardgrass = test: Test B flood test barnyardgrass; format: in vivo, Echinochloa crus-galli; settings: Pre-emergence
In short: as §2

[1] = Postemergence, Rate 125 g/ha, scale 0 to 10, 0 is no effect, 10 is complete control
[2] = Preemergence, Rate 62 g/ha, scale 0 to 10 (0 no effect, 10 complete control)
[3] = Rate 500 g/ha, Postemergence, scale 0 to 10, 0 no effect, 10 complete control
[4] = Rate 62 g/ha, flood test species, visual evaluation after twelve to sixteen days
[5] = Rate 125 g/ha, flood test species, scale 0 to 10 where 0 is no effect and 10 is complete control
[6] = Rate 250 g/ha, flood-test species, scale 0 to 10, 0 is no effect, 10 is complete control
[7] = Rate 500 g/ha, flood test species, scale 0 to 10 (0 no effect, 10 complete control)

Compound: CCC(CC)n1c(=O)on(C(=O)N(c2ccc(F)cc2F)C(C)C)c1=O [Compound 353]
- Plant response rating, Cocklebur (cocklebur; [1]): 0
- Plant response rating, Cocklebur (cocklebur; [2]): 0
- Cocklebur plant response rating (0 to 10 scale) (cocklebur; Preemergence, Rate 125 g/ha): 0
- Cocklebur plant response rating (cocklebur; Rate 62 g/ha, Postemergence, scale of 0 to 10 where 0 is no effect and 10 is complete control): 0
- Plant response rating, Cocklebur (cocklebur; [3]): 1
- Plant response rating, Corn (corn; [1]): 0
- Plant response rating, Corn (corn; [2]): 0
- Corn plant response rating (0 to 10 scale) (corn; Preemergence, Rate 125 g/ha): 3
- Corn plant response rating (corn; Preemergence, Rate 250 g/ha): 3
- Corn plant response rating (corn; Preemergence, Rate 500 g/ha): 7
- Corn plant response rating (corn; Rate 62 g/ha, Postemergence): 0
- Plant response rating, Corn (corn; [3]): 0
- Plant response rating, Crabgrass (crabgrass; [1]): 0
- Plant response rating, Crabgrass (crabgrass; [2]): 7
- Crabgrass plant response rating (0 to 10 scale) (crabgrass; Preemergence, Rate 125 g/ha): 9
- Crabgrass plant response rating (crabgrass; Preemergence, Rate 250 g/ha): 10
- Crabgrass plant response rating (crabgrass; Preemergence, Rate 500 g/ha): 10
- Crabgrass plant response rating (crabgrass; Rate 62 g/ha, Postemergence): 0
- Plant response rating, Crabgrass (crabgrass; [3]): 3
- Plant response rating, Giant foxtail (giant foxtail; [1]): 3
- Plant response rating, Giant foxtail (giant foxtail; [2]): 9
- Giant foxtail plant response rating (0 to 10 scale) (giant foxtail; Preemergence, Rate 125 g/ha): 10
- Giant foxtail plant response rating (giant foxtail; Preemergence, Rate 250 g/ha): 10
- Giant foxtail plant response rating (giant foxtail; Preemergence, Rate 500 g/ha): 10
- Giant foxtail plant response rating (giant foxtail; Rate 62 g/ha, Postemergence): 0
- Plant response rating, Giant foxtail (giant foxtail; [3]): 8
- Plant response rating, Morningglory (morningglory; [1]): 3
- Plant response rating, Morningglory (morningglory; [2]): 0
- Morningglory plant response rating (0 to 10 scale) (morningglory; Preemergence, Rate 125 g/ha): 0
- Morningglory plant response rating (morningglory; Preemergence, Rate 250 g/ha): 1
- Morningglory plant response rating (morningglory; Preemergence, Rate 500 g/ha): 1
- Morningglory plant response rating (morningglory; Rate 62 g/ha, Postemergence): 3
- Plant response rating, Morningglory (morningglory; [3]): 10
- Plant response rating, Redroot pigweed (pigweed; [1]): 3
- Plant response rating, Redroot pigweed (pigweed; [2]): 7
- Redroot pigweed plant response rating (0 to 10 scale) (pigweed; Preemergence, Rate 125 g/ha): 10
- Redroot pigweed plant response rating (pigweed; Preemergence, Rate 250 g/ha): 10
- Redroot pigweed plant response rating (pigweed; Preemergence, Rate 500 g/ha): 10
- Redroot pigweed plant response rating (pigweed; Rate 62 g/ha, Postemergence): 2
- Plant response rating, Redroot pigweed (pigweed; [3]): 6
- Plant response rating, Rape (rape; [1]): 2
- Plant response rating, Rape (rape; [2]): 0
- Rape plant response rating (0 to 10 scale) (rape; Preemergence, Rate 125 g/ha): 0
- Rape plant response rating (rape; Preemergence, Rate 250 g/ha): 1
- Rape plant response rating (rape; Preemergence, Rate 500 g/ha): 5
- Rape plant response rating (rape; Rate 62 g/ha, Postemergence): 2
- Plant response rating, Rape (rape; [3]): 4
- Plant response rating, Soybean (soybean; [1]): 4
- Plant response rating, Soybean (soybean; [2]): 0
- Soybean plant response rating (0 to 10 scale) (soybean; Preemergence, Rate 125 g/ha): 0
- Soybean plant response rating (soybean; Preemergence, Rate 250 g/ha): 0
- Soybean plant response rating (soybean; Preemergence, Rate 500 g/ha): 0
- Soybean plant response rating (soybean; Rate 62 g/ha, Postemergence): 4
- Plant response rating, Soybean (soybean; [3]): 6
- Plant response rating, Sugarbeets (sugar beet; [1]): 0
- Plant response rating, Sugarbeets (sugar beet; [2]): 0
- Sugarbeets plant response rating (0 to 10 scale) (sugar beet; Preemergence, Rate 125 g/ha): 2
- Sugarbeets plant response rating (sugar beet; Preemergence, Rate 250 g/ha): 2
- Sugarbeets plant response rating (sugar beet; Preemergence, Rate 500 g/ha): 4
- Sugarbeets plant response rating (sugar beet; Rate 62 g/ha, Postemergence): 0
- Plant response rating, Sugarbeets (sugar beet; [3]): 6
- Plant response rating, Velvetleaf (velvetleaf; [1]): 0
- Plant response rating, Velvetleaf (velvetleaf; [2]): 0
- Velvetleaf plant response rating (0 to 10 scale) (velvetleaf; Preemergence, Rate 125 g/ha): 1
- Velvetleaf plant response rating (velvetleaf; Preemergence, Rate 250 g/ha): 4
- Velvetleaf plant response rating (velvetleaf; Preemergence, Rate 500 g/ha): 6
- Velvetleaf plant response rating (velvetleaf; Rate 62 g/ha, Postemergence): 0
- Plant response rating, Velvetleaf (velvetleaf; [3]): 2
- Plant response rating, Wheat (wheat; [1]): 0
- Plant response rating, Wheat (wheat; [2]): 0
- Wheat plant response rating (0 to 10 scale) (wheat; Preemergence, Rate 125 g/ha): 0
- Wheat plant response rating (wheat; Preemergence, Rate 250 g/ha): 2
- Wheat plant response rating (wheat; Preemergence, Rate 500 g/ha): 2
- Wheat plant response rating (wheat; Rate 62 g/ha, Postemergence): 0
- Plant response rating, Wheat (wheat; [3]): 0
- Plant response rating, Wild oats (wild oat; [1]): 0
- Plant response rating, Wild oats (wild oat; [2]): 0
- Wild oats plant response rating (0 to 10 scale) (wild oat; Preemergence, Rate 125 g/ha): 1
- Wild oats plant response rating (wild oat; Preemergence, Rate 250 g/ha): 4
- Wild oats plant response rating (wild oat; Preemergence, Rate 500 g/ha): 6
- Wild oats plant response rating (wild oat; Rate 62 g/ha, Postemergence): 0
- Plant response rating, Wild oats (wild oat; [3]): 2
- Plant response rating, Nutsedge (purple nutsedge; [1]): 0
- Plant response rating, Nutsedge (purple nutsedge; [2]): 0
- Nutsedge plant response rating (0 to 10 scale) (purple nutsedge; Preemergence, Rate 125 g/ha): 0
- Nutsedge plant response rating (purple nutsedge; Preemergence, Rate 250 g/ha): 0
- Nutsedge plant response rating (purple nutsedge; Preemergence, Rate 500 g/ha): 0
- Nutsedge plant response rating (purple nutsedge; Rate 62 g/ha, Postemergence): 0
- Plant response rating, Nutsedge (purple nutsedge; [3]): 0
- Plant response rating, Rice (0 to 10 scale, 0 is no effect, 10 is complete control) (rice; [4]): 0
- Rice plant response rating (rice; [5]): 0
- Rice plant response rating (rice; [6]): 0
- Rice plant response rating (rice; [7]): 4
- Plant response rating, Ducksalad (0 to 10 scale, 0 is no effect, 10 is complete control) (duck salad; [4]): 0
- Ducksalad plant response rating (duck salad; [5]): 0
- Ducksalad plant response rating (duck salad; [6]): 0
- Ducksalad plant response rating (duck salad; [7]): 0
- Plant response rating, Barnyardgrass (0 to 10 scale, 0 is no effect, 10 is complete control) (bamyardgrass; [4]): 0
- Barnyardgrass plant response rating (bamyardgrass; [5]): 0
- Barnyardgrass plant response rating (bamyardgrass; [6]): 0
- Barnyardgrass plant response rating (bamyardgrass; [7]): 9
